Laboratory results from patent US9732075B2, “Benzimidazole-proline derivatives” (IDORSIA PHARMACEUTICALS LTD, priority 2012, dated 2017).

What was measured:
human orexin-2 receptor = human orexin-2 receptor (Homo sapiens (Human), UniProt O43614); experiment: In vitro assay: intracellular calcium measurements (FLIPR), antagonistic activity; type: cell-based; conditions: CHO cells expressing human orexin-2 receptor, orexin-A agonist, geometric mean, read-out: IC50 Ox2
Method in brief: (§1)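 hOX1R/hOX2R CHO cells, fluo-4 AM + 5 mM probenecid, 50 min 37 °C then 30 min RT. Cpd 120 min, then orexin-A 3 nM final; FLIPR peak height vs vehicle. IC50, geometric mean of repeats.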

human orexin-1 receptor = human orexin-1 receptor (Homo sapiens (Human), UniProt O43613); experiment: as above; type: cell-based; conditions: CHO cells expressing human orexin-1 receptor, orexin-A agonist, geometric mean, read-out: IC50 Ox1
Method in brief: as §1

Sequence of human orexin-1 receptor (O43613 whole entry): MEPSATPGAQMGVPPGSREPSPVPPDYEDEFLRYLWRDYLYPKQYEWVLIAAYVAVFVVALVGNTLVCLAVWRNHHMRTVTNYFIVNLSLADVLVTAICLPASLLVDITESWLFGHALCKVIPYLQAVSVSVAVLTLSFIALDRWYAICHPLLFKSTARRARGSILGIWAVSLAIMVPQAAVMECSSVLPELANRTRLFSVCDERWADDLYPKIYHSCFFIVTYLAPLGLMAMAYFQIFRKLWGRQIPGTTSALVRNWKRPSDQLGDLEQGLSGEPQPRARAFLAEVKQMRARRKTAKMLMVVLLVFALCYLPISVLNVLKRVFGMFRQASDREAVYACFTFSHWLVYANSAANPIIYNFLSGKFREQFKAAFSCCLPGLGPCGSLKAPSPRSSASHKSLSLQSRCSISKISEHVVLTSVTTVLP
Sequence of human orexin-2 receptor (O43614 whole entry): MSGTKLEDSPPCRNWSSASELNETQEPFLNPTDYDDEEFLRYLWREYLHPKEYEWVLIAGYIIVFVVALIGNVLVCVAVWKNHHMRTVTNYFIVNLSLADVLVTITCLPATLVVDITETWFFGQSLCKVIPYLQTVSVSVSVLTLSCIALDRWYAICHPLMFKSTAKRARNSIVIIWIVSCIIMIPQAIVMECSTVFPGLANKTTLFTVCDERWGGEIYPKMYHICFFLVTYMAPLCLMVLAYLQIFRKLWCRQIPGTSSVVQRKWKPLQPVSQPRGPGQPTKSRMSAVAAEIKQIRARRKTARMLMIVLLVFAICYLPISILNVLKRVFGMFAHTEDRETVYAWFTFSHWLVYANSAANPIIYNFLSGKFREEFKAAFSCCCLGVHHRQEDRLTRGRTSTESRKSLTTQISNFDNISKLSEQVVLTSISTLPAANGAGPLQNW

Row | IC50 (human orexin-2 receptor) [nM] | IC50 (human orexin-1 receptor) [nM] | Structure (SMILES)
1 | 31 | 203 | C=C1C[C@@H](c2nc3cc(OC)ccc3[nH]2)N(C(=O)c2nc(C)sc2-c2cccc(C(F)(F)F)c2)C1 [Ex. 6.30]
2 | 22 | 41 | C=C1C[C@@H](c2nc3cc(OC)ccc3[nH]2)N(C(=O)c2nc(C3CC3)sc2-c2cccc(OC)c2)C1 [Ex. 6.31]
3 | 103 | 814 | C=C1C[C@@H](c2nc3cc(OC)ccc3[nH]2)N(C(=O)c2ncsc2-c2cccc(Cl)c2)C1 [Ex. 6.32]
4 | 23 | 213 | C=C1C[C@@H](c2nc3cc(OC)ccc3[nH]2)N(C(=O)c2nc(C)sc2-c2cccc(F)c2)C1 [Ex. 6.33]
5 | 66 | 398 | C=C1C[C@@H](c2nc3cc(OC)ccc3[nH]2)N(C(=O)c2nc(C)sc2-c2ccccc2Cl)C1 [Ex. 6.34]
6 | 80 | 146 | C=C1C[C@@H](c2nc3cc(OC)ccc3[nH]2)N(C(=O)c2nc(C3CC3)sc2-c2ccc(C)cc2)C1 [Ex. 6.35]
7 | 2 | 15 | C=C1C[C@@H](c2nc3cc(OC)ccc3[nH]2)N(C(=O)c2cc(C)sc2-c2ccc(C)c(C)c2)C1 [Ex. 6.36]
8 | 45 | 422 | C=C1C[C@@H](c2nc3cc(OC)ccc3[nH]2)N(C(=O)c2nc(C)sc2-c2cc(F)cc(F)c2)C1 [Ex. 6.37]
9 | 19 | 269 | C=C1C[C@@H](c2nc3cc(OC)ccc3[nH]2)N(C(=O)c2ccsc2-c2cccc(C)c2)C1 [Ex. 6.38]
10 | 9 | 106 | C=C1C[C@@H](c2nc3cc(OC)ccc3[nH]2)N(C(=O)c2ccsc2-c2ccc(C)c(C)c2)C1 [Ex. 6.39]
11 | 9 | 70 | C=C1C[C@@H](c2nc3c(C)cccc3[nH]2)N(C(=O)c2nc(C)sc2-c2ccccc2)C1 [Ex. 6.40]
12 | 2 | 4 | C=C1C[C@@H](c2nc3c(C)c(Cl)ccc3[nH]2)N(C(=O)c2nc(C)sc2-c2ccccc2)C1 [Ex. 6.41]
13 | 2 | 12 | C=C1C[C@@H](c2nc3c(C)c(Cl)ccc3[nH]2)N(C(=O)c2cc(C)ccc2-n2nccn2)C1 [Ex. 6.42]
14 | 62 | 368 | C=C1C[C@@H](c2nc3ccccc3[nH]2)N(C(=O)c2nc(C)sc2-c2cccc(Cl)c2)C1 [Ex. 6.43]
15 | 2 | 10 | C=C1C[C@@H](c2nc3c(C)cccc3[nH]2)N(C(=O)c2nc(C)sc2-c2cccc(Cl)c2)C1 [Ex. 6.44]
16 | 1 | 1 | C=C1C[C@@H](c2nc3c(C)c(Cl)ccc3[nH]2)N(C(=O)c2nc(C)sc2-c2cccc(Cl)c2)C1 [Ex. 6.45]
17 | 4 | 30 | C=C1C[C@@H](c2nc3ccc(OC)cc3[nH]2)N(C(=O)c2nc(C)sc2-c2ccc(C)c(C)c2)C1 [Ex. 6.46]
18 | 1 | 6 | C=C1C[C@@H](c2nc3c(C)c(C)ccc3[nH]2)N(C(=O)c2nc(C)sc2-c2ccc(C)c(C)c2)C1 [Ex. 6.47]
19 | 7 | 14 | C=C1C[C@@H](c2nc3c(OC)ccc(OC)c3[nH]2)N(C(=O)c2nc(C)sc2-c2ccc(C)c(C)c2)C1 [Ex. 6.48]
20 | 1 | 3 | C=C1C[C@@H](c2nc3c(SC)cccc3[nH]2)N(C(=O)c2nc(C)sc2-c2ccc(C)c(C)c2)C1 [Ex. 6.49]

Row | IC50 (human orexin-2 receptor) [nM] | IC50 (human orexin-1 receptor) [nM] | Structure (SMILES)
21 | 1 | 5 | C=C1C[C@@H](c2nc3c(Br)cccc3[nH]2)N(C(=O)c2nc(C)sc2-c2ccc(C)c(C)c2)C1 [Ex. 6.50]
22 | 3 | 8 | C=C1C[C@@H](c2nc3c(Cl)cccc3[nH]2)N(C(=O)c2nc(C)sc2-c2ccc(C)c(C)c2)C1 [Ex. 6.51]
23 | 2 | 8 | C=C1C[C@@H](c2nc3cc(SC)ccc3[nH]2)N(C(=O)c2nc(C)sc2-c2ccc(C)c(C)c2)C1 [Ex. 6.52]
24 | 1 | 4 | C=C1C[C@@H](c2nc3c(C)cccc3[nH]2)N(C(=O)c2nc(C)sc2-c2ccc(C)c(C)c2)C1 [Ex. 6.53]
25 | 1 | 3 | C=C1C[C@@H](c2nc3c(C)c(Cl)ccc3[nH]2)N(C(=O)c2nc(C)sc2-c2ccc(C)c(C)c2)C1 [Ex. 6.54]
26 | 1 | 5 | C=C1C[C@@H](c2nc3cc(Cl)c(C)cc3[nH]2)N(C(=O)c2nc(C)sc2-c2ccc(C)c(C)c2)C1 [Ex. 6.55]
27 | 1 | 6 | C=C1C[C@@H](c2nc3cc(C)c(C)cc3[nH]2)N(C(=O)c2nc(C)sc2-c2ccc(C)c(C)c2)C1 [Ex. 6.56]
28 | 11 | 11 | C=C1C[C@@H](c2nc3cc(C(C)(C)C)ccc3[nH]2)N(C(=O)c2nc(C)sc2-c2ccc(C)c(C)c2)C1 [Ex. 6.57]
29 | 1 | 4 | C=C1C[C@@H](c2nc3c(C)cc(C)cc3[nH]2)N(C(=O)c2nc(C)sc2-c2ccc(C)c(C)c2)C1 [Ex. 6.58]
30 | 10 | 76 | C=C1C[C@@H](c2nc3cccc(SC)c3[nH]2)N(C(=O)c2cc(C)ccc2-n2nccn2)C1 [Ex. 6.59]
31 | 3 | 83 | C=C1C[C@@H](c2nc3cc(SC)ccc3[nH]2)N(C(=O)c2cc(C)ccc2-n2nccn2)C1 [Ex. 6.60]
32 | 4 | 41 | C=C1C[C@@H](c2nc3cc(C)c(C)cc3[nH]2)N(C(=O)c2cc(C)ccc2-n2nccn2)C1 [Ex. 6.61]
33 | 4 | 44 | C=C1C[C@@H](c2nc3c(C)cc(C)cc3[nH]2)N(C(=O)c2cc(C)ccc2-n2nccn2)C1 [Ex. 6.62]
34 | 3 | 88 | C=C1C[C@@H](c2nc3c(C)c(C)ccc3[nH]2)N(C(=O)c2cc(C)ccc2-n2nccn2)C1 [Ex. 6.63]
35 | 33 | 142 | C=C1C[C@@H](c2nc3c(Br)cccc3[nH]2)N(C(=O)c2cc(C)ccc2-n2nccn2)C1 [Ex. 6.64]
36 | 3 | 34 | C=C1C[C@@H](c2nc3cc(Cl)c(C)cc3[nH]2)N(C(=O)c2cc(C)ccc2-n2nccn2)C1 [Ex. 6.65]
37 | 2 | 57 | C=C1C[C@@H](c2nc3cc(C(C)(C)C)ccc3[nH]2)N(C(=O)c2cc(C)ccc2-n2nccn2)C1 [Ex. 6.66]
38 | 5 | 9 | C=C1C[C@@H](c2nc3cc(Cl)c(C(F)(F)F)cc3[nH]2)N(C(=O)c2cc(C)ccc2-n2nccn2)C1 [Ex. 6.67]
39 | 62 | 767 | C=C1C[C@@H](c2nc3c(OC)ccc(OC)c3[nH]2)N(C(=O)c2cc(C)ccc2-n2nccn2)C1 [Ex. 6.68]
40 | 51 | 389 | C=C1C[C@@H](c2nc3cccc(Cl)c3[nH]2)N(C(=O)c2cc(C)ccc2-n2nccn2)C1 [Ex. 6.69]

Row | IC50 (human orexin-2 receptor) [nM] | IC50 (human orexin-1 receptor) [nM] | Structure (SMILES)
41 | 4 | 10 | C=C1CC(c2nc3cc(SC)ccc3[nH]2)N(C(=O)c2cc(C)sc2-c2ccc(C)c(C)c2)C1 (stereo not shown) [Ex. 6.73]
42 | 11 | 4 | C=C1CC(c2nc3c(C)c(Cl)ccc3[nH]2)N(C(=O)c2cc(C)sc2-c2ccc(C)c(C)c2)C1 (stereo not shown) [Ex. 6.74]
43 | 4 | 4 | C=C1CC(c2nc3c(C)cc(C)cc3[nH]2)N(C(=O)c2cc(C)sc2-c2ccc(C)c(C)c2)C1 (stereo not shown) [Ex. 6.76]
44 | 9 | 3 | C=C1CC(c2nc3c(C)c(C)ccc3[nH]2)N(C(=O)c2cc(C)sc2-c2ccc(C)c(C)c2)C1 (stereo not shown) [Ex. 6.77]
45 | 12 | 5 | C=C1CC(c2nc3c(Br)cccc3[nH]2)N(C(=O)c2cc(C)sc2-c2ccc(C)c(C)c2)C1 (stereo not shown) [Ex. 6.78]
46 | 4 | 2 | C=C1CC(c2nc3c(C)cccc3[nH]2)N(C(=O)c2cc(C)sc2-c2ccc(C)c(C)c2)C1 (stereo not shown) [Ex. 6.79]
47 | 23 | 19 | C=C1CC(c2nc3cc(C(C)(C)C)ccc3[nH]2)N(C(=O)c2cc(C)sc2-c2ccc(C)c(C)c2)C1 (stereo not shown) [Ex. 6.81]
48 | 208 | 36 | C=C1CC(c2nc3cc(Cl)c(C(F)(F)F)cc3[nH]2)N(C(=O)c2cc(C)sc2-c2ccc(C)c(C)c2)C1 (stereo not shown) [Ex. 6.82]
49 | 14 | 8 | C=C1CC(c2nc3cccc(Cl)c3[nH]2)N(C(=O)c2cc(C)sc2-c2ccc(C)c(C)c2)C1 (stereo not shown) [Ex. 6.84]
50 | 42 | 108 | C=C1CC(c2nc3cc4ccccc4cc3[nH]2)N(C(=O)c2cc(C)sc2-c2ccc(C)c(C)c2)C1 (stereo not shown) [Ex. 6.85]
51 | 15 | 20 | C=C1CC(c2nc3cc(SC)ccc3[nH]2)N(C(=O)c2nc(C3CC3)sc2-c2cccc(C)c2)C1 (stereo not shown) [Ex. 6.88]
52 | 2 | 2 | C=C1CC(c2nc3c(C)c(Cl)ccc3[nH]2)N(C(=O)c2nc(C3CC3)sc2-c2cccc(C)c2)C1 (stereo not shown) [Ex. 6.89]
53 | 1 | 6 | C=C1CC(c2nc3cc(C)c(C)cc3[nH]2)N(C(=O)c2nc(C3CC3)sc2-c2cccc(C)c2)C1 (stereo not shown) [Ex. 6.90]
54 | 1 | 2 | C=C1CC(c2nc3c(C)cc(C)cc3[nH]2)N(C(=O)c2nc(C3CC3)sc2-c2cccc(C)c2)C1 (stereo not shown) [Ex. 6.91]
55 | 3 | 0.9 | C=C1CC(c2nc3c(Br)cccc3[nH]2)N(C(=O)c2nc(C3CC3)sc2-c2cccc(C)c2)C1 (stereo not shown) [Ex. 6.93]
56 | 1 | 2 | C=C1CC(c2nc3c(C)cccc3[nH]2)N(C(=O)c2nc(C3CC3)sc2-c2cccc(C)c2)C1 (stereo not shown) [Ex. 6.94]
57 | 68 | 234 | C=C1CC(c2nc3cc(C(C)(C)C)ccc3[nH]2)N(C(=O)c2nc(C3CC3)sc2-c2cccc(C)c2)C1 (stereo not shown) [Ex. 6.96]
58 | 3 | 4 | C=C1CC(c2nc3c(OC)ccc(OC)c3[nH]2)N(C(=O)c2nc(C3CC3)sc2-c2cccc(C)c2)C1 (stereo not shown) [Ex. 6.98]
59 | 4 | 55 | C=C1C[C@@H](c2nc3cccc(C)c3[nH]2)N(C(=O)c2nc(C)sc2-c2ccc(Br)cc2)C1 [Ex. 6.100]
